Reference: the supplement of paper PMC6045584
± gives the standard deviation of the averaged measurements.

Tests used:
CANERTINIB [1] = compound: T1, C=CC(=O)Nc1cc2c(Nc3ccc(F)c(Cl)c3)ncnc2cc1OCCCN1CCOCC1 [CANERTINIB]; test: surviving fraction relative to DMSO-only wells; higher = less growth inhibition; conditions: exposure time: 5 days
Procedure, shortened: (§1)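 Each tumour cell line was screened three times, and only lines with replicate Pearson r >0.7 and median Z' >0.3 were kept. Cells in log phase were seeded at 250–500 per well in 384-well plates, left 24 hours, then exposed continuously for five days to inhibitors at 0.5, 1, 5, 10, 50, 100, 500 and 1000 nM. Viability was read as CellTiter-Glo luminescence, with surviving fraction normalised to the median of DMSO-only wells.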

SNX-5422 [2] = compound: T2, CC1(C)CC(=O)c2c(C(F)(F)F)nn(-c3ccc(C(N)=O)c(N[C@H]4CC[C@H](OC(=O)CN)CC4)c3)c2C1 [SNX-5422]; test: as above; conditions: exposure time: 5 days
Procedure, shortened: as §1

SAPACITABINE [3] = compound: T3, CCCCCCCCCCCCCCCC(=O)Nc1ccn([C@@H]2O[C@H](CO)[C@@H](O)[C@@H]2C#N)c(=O)n1 [SAPACITABINE]; test: as above; conditions: exposure time: 5 days
Procedure, shortened: as §1

BI-2536 [4] = compound: T4, CC[C@@H]1C(=O)N(C)c2cnc(Nc3ccc(C(=O)NC4CCN(C)CC4)cc3OC)nc2N1C1CCCC1 [BI-2536]; test: as above; conditions: exposure time: 5 days
Procedure, shortened: as §1

AFATINIB [5] = compound: T5, CN(C)C/C=C/C(=O)Nc1cc2c(Nc3ccc(F)c(Cl)c3)ncnc2cc1O[C@H]1CCOC1 [AFATINIB]; test: as above; conditions: exposure time: 5 days
Procedure, shortened: as §1

MDV3100 [6] = compound: T6, CNC(=O)c1ccc(N2C(=S)N(c3ccc(C#N)c(C(F)(F)F)c3)C(=O)C2(C)C)cc1F [MDV3100]; test: as above; conditions: exposure time: 5 days
Procedure, shortened: as §1

[7] = compound: Cn1cc(C2=Nc3cc(NC(=O)C(N)C4CCCCC4)cc4c3C2=CNNC4=O)cn1; test: as above; conditions: exposure time: 5 days
Procedure, shortened: as §1

TIOGUANINE [8] = compound: T7, Nc1nc2[nH]cnc2c(=S)[nH]1 [TIOGUANINE]; test: as above; conditions: exposure time: 5 days
Procedure, shortened: as §1

CANERTINIB [9] = compound: T1, CANERTINIB; test: area under dose-response curve of surviving fraction (unscaled, Aref=0) (surviving fraction x log10(nM)); higher = more resistant; conditions: exposure time: 5 days; dose range 0.5-1000 nM
Procedure, shortened: (§2)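 Inhibitor was applied to tumour cell lines at eight concentrations (0.5 to 1000 nM) for five days in 384-well plates. Luminescence from CellTiter-Glo, scaled to DMSO-only wells, gave surviving fractions in three screens per line, and these were fitted by 3-parameter logistic regression with the drc R package. The area under the curve is an unscaled activity area. Aref was 0, and dose was on a log10 scale.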

SNX-5422 [10] = compound: T2, SNX-5422; test: as above; conditions: exposure time: 5 days; dose range 0.5-1000 nM
Procedure, shortened: as §2

SAPACITABINE [11] = compound: T3, SAPACITABINE; test: as above; conditions: exposure time: 5 days; dose range 0.5-1000 nM
Procedure, shortened: as §2

BI-2536 [12] = compound: T4, BI-2536; test: as above; conditions: exposure time: 5 days; dose range 0.5-1000 nM
Procedure, shortened: as §2

AFATINIB [13] = compound: T5, AFATINIB; test: as above; conditions: exposure time: 5 days; dose range 0.5-1000 nM
Procedure, shortened: as §2

MDV3100 [14] = compound: T6, MDV3100; test: as above; conditions: exposure time: 5 days; dose range 0.5-1000 nM
Procedure, shortened: as §2

[15] = compound: Cn1cc(C2=Nc3cc(NC(=O)C(N)C4CCCCC4)cc4c3C2=CNNC4=O)cn1; test: as above; conditions: exposure time: 5 days; dose range 0.5-1000 nM
Procedure, shortened: as §2

TIOGUANINE [16] = compound: T7, TIOGUANINE; test: as above; conditions: exposure time: 5 days; dose range 0.5-1000 nM
Procedure, shortened: as §2

Question: With HCC38 BREAST as the test system, how does the surviving fraction (CANERTINIB [1]; 0.5 nM) read?
Answer: 1.01 ± 0.11

Question: What about the surviving fraction (CANERTINIB [1]; 1 nM) of the same test system?
Answer: 1.07 ± 0.18

Question: What about the surviving fraction (CANERTINIB [1]; 5 nM) of the same test system?
Answer: 1.08 ± 0.24

Question: And the surviving fraction (CANERTINIB [1]; 10 nM)?
Answer: 1.05 ± 0.082

Question: And the surviving fraction (CANERTINIB [1]; 50 nM)?
Answer: 1.19 ± 0.17

Question: And the surviving fraction (CANERTINIB [1]; 100 nM)?
Answer: 1.18 ± 0.12

Question: And the surviving fraction (CANERTINIB [1]; 500 nM)?
Answer: 0.948 ± 0.1

Question: And the surviving fraction (CANERTINIB [1]; 1000 nM)?
Answer: 0.864 ± 0.16

Question: What about the surviving fraction (SNX-5422 [2]; 0.5 nM) of the same test system?
Answer: 1.19 ± 0.18

Question: What about the surviving fraction (SNX-5422 [2]; 1 nM) of the same test system?
Answer: 1.09 ± 0.094

Question: What about the surviving fraction (SNX-5422 [2]; 5 nM) of the same test system?
Answer: 1.06 ± 0.19

Question: What about the surviving fraction (SNX-5422 [2]; 10 nM) of the same test system?
Answer: 1.01 ± 0.15

Question: What about the surviving fraction (SNX-5422 [2]; 50 nM) of the same test system?
Answer: 0.219 ± 0.053

Question: What about the surviving fraction (SNX-5422 [2]; 100 nM) of the same test system?
Answer: 0.26 ± 0.027

Question: And the surviving fraction (SNX-5422 [2]; 500 nM)?
Answer: 0.0927 ± 0.0074

Question: What about the surviving fraction (SNX-5422 [2]; 1000 nM) of the same test system?
Answer: 0.0897 ± 0.017

Question: And the surviving fraction (SAPACITABINE [3]; 0.5 nM)?
Answer: 0.958 ± 0.075

Question: And the surviving fraction (SAPACITABINE [3]; 1 nM)?
Answer: 0.931 ± 0.092

Question: What about the surviving fraction (SAPACITABINE [3]; 5 nM) of the same test system?
Answer: 1.02 ± 0.21

Question: What about the surviving fraction (SAPACITABINE [3]; 10 nM) of the same test system?
Answer: 0.801 ± 0.02

Question: What about the surviving fraction (SAPACITABINE [3]; 50 nM) of the same test system?
Answer: 0.594 ± 0.17

Question: And the surviving fraction (SAPACITABINE [3]; 100 nM)?
Answer: 0.525 ± 0.04

Question: And the surviving fraction (SAPACITABINE [3]; 500 nM)?
Answer: 0.414 ± 0.086

Question: What about the surviving fraction (SAPACITABINE [3]; 1000 nM) of the same test system?
Answer: 0.274 ± 0.088

Question: What about the surviving fraction (BI-2536 [4]; 0.5 nM) of the same test system?
Answer: 1.08 ± 0.078

Question: And the surviving fraction (BI-2536 [4]; 1 nM)?
Answer: 1.15 ± 0.18

Question: What about the surviving fraction (BI-2536 [4]; 5 nM) of the same test system?
Answer: 0.289 ± 0.021

Question: And the surviving fraction (BI-2536 [4]; 10 nM)?
Answer: 0.247 ± 0.038

Question: What about the surviving fraction (BI-2536 [4]; 50 nM) of the same test system?
Answer: 0.219 ± 0.025

Question: What about the surviving fraction (BI-2536 [4]; 100 nM) of the same test system?
Answer: 0.254 ± 0.017

Question: What about the surviving fraction (BI-2536 [4]; 500 nM) of the same test system?
Answer: 0.191 ± 0.019

Question: What about the surviving fraction (BI-2536 [4]; 1000 nM) of the same test system?
Answer: 0.115 ± 0.024

Question: And the surviving fraction (AFATINIB [5]; 0.5 nM)?
Answer: 1.37 ± 0.28

Question: And the surviving fraction (AFATINIB [5]; 1 nM)?
Answer: 1.23 ± 0.18

Question: What about the surviving fraction (AFATINIB [5]; 5 nM) of the same test system?
Answer: 1.27 ± 0.074

Question: And the surviving fraction (AFATINIB [5]; 10 nM)?
Answer: 1.26 ± 0.044

Question: What about the surviving fraction (AFATINIB [5]; 50 nM) of the same test system?
Answer: 1.2 ± 0.2

Question: What about the surviving fraction (AFATINIB [5]; 100 nM) of the same test system?
Answer: 1.17 ± 0.17

Question: And the surviving fraction (AFATINIB [5]; 500 nM)?
Answer: 1 ± 0.18

Question: What about the surviving fraction (AFATINIB [5]; 1000 nM) of the same test system?
Answer: 0.749 ± 0.098

Question: And the surviving fraction (MDV3100 [6]; 0.5 nM)?
Answer: 1.02 ± 0.14

Question: What about the surviving fraction (MDV3100 [6]; 1 nM) of the same test system?
Answer: 1.27 ± 0.2

Question: What about the surviving fraction (MDV3100 [6]; 5 nM) of the same test system?
Answer: 1.28 ± 0.038

Question: And the surviving fraction (MDV3100 [6]; 10 nM)?
Answer: 1.1 ± 0.066

Question: And the surviving fraction (MDV3100 [6]; 50 nM)?
Answer: 1.25 ± 0.027

Question: And the surviving fraction (MDV3100 [6]; 100 nM)?
Answer: 1.35 ± 0.11

Question: What about the surviving fraction (MDV3100 [6]; 500 nM) of the same test system?
Answer: 1.28 ± 0.038

Question: And the surviving fraction (MDV3100 [6]; 1000 nM)?
Answer: 1.13 ± 0.19

Question: What about the surviving fraction ([7]; 0.5 nM) of the same test system?
Answer: 1 ± 0.33

Question: What about the surviving fraction ([7]; 1 nM) of the same test system?
Answer: 1.06 ± 0.23

Question: What about the surviving fraction ([7]; 5 nM) of the same test system?
Answer: 0.978 ± 0.3

Question: What about the surviving fraction ([7]; 10 nM) of the same test system?
Answer: 0.92 ± 0.11

Question: And the surviving fraction ([7]; 50 nM)?
Answer: 0.114 ± 0.036

Question: What about the surviving fraction ([7]; 100 nM) of the same test system?
Answer: 0.031 ± 0.0079

Question: And the surviving fraction ([7]; 500 nM)?
Answer: 0.027 ± 0.0027

Question: And the surviving fraction ([7]; 1000 nM)?
Answer: 0.021 ± 0.0017

Question: And the surviving fraction (TIOGUANINE [8]; 0.5 nM)?
Answer: 1.15 ± 0.31

Question: And the surviving fraction (TIOGUANINE [8]; 1 nM)?
Answer: 1.3 ± 0.38

Question: What about the surviving fraction (TIOGUANINE [8]; 5 nM) of the same test system?
Answer: 1.15 ± 0.29

Question: What about the surviving fraction (TIOGUANINE [8]; 10 nM) of the same test system?
Answer: 1.28 ± 0.099

Question: And the surviving fraction (TIOGUANINE [8]; 50 nM)?
Answer: 1.1 ± 0.24

Question: And the surviving fraction (TIOGUANINE [8]; 100 nM)?
Answer: 1.08 ± 0.062

Question: What about the surviving fraction (TIOGUANINE [8]; 500 nM) of the same test system?
Answer: 1.08 ± 0.32

Question: And the surviving fraction (TIOGUANINE [8]; 1000 nM)?
Answer: 0.95 ± 0.15

Question: What about the “area under dose-response curve” value (CANERTINIB [9]) of the same test system?
Answer: 3.55

Question: And the “area under dose-response curve” value (SNX-5422 [10])?
Answer: 1.97

Question: And the “area under dose-response curve” value (SAPACITABINE [11])?
Answer: 2.32

Question: And the “area under dose-response curve” value (BI-2536 [12])?
Answer: 1.35

Question: What about the “area under dose-response curve” value (AFATINIB [13]) of the same test system?
Answer: 3.94

Question: What about the “area under dose-response curve” value (MDV3100 [14]) of the same test system?
Answer: 4.04

Question: And the “area under dose-response curve” value [15]?
Answer: 1.69

Question: And the “area under dose-response curve” value (TIOGUANINE [16])?
Answer: 3.75
